Where a SMILES comes first, the peptide text is derived from it. Bridges are numbered along the chain shown (N, C = ends). [ ]: non-standard residue; d: D form. The star is where a group is joined. Hexanoyl = CCCCCC(=O)*

In the first assay the target is T1, NPR-B (Homo sapiens, UniProt P20594).
T1 construct: a functional assay using endogenously NPR-B expressing GTM-3 cells; endogenous in cells; host or cells: GTM-3 (transformed human trabecular meshwork cells)
T1 sequence (P20594 23-1047): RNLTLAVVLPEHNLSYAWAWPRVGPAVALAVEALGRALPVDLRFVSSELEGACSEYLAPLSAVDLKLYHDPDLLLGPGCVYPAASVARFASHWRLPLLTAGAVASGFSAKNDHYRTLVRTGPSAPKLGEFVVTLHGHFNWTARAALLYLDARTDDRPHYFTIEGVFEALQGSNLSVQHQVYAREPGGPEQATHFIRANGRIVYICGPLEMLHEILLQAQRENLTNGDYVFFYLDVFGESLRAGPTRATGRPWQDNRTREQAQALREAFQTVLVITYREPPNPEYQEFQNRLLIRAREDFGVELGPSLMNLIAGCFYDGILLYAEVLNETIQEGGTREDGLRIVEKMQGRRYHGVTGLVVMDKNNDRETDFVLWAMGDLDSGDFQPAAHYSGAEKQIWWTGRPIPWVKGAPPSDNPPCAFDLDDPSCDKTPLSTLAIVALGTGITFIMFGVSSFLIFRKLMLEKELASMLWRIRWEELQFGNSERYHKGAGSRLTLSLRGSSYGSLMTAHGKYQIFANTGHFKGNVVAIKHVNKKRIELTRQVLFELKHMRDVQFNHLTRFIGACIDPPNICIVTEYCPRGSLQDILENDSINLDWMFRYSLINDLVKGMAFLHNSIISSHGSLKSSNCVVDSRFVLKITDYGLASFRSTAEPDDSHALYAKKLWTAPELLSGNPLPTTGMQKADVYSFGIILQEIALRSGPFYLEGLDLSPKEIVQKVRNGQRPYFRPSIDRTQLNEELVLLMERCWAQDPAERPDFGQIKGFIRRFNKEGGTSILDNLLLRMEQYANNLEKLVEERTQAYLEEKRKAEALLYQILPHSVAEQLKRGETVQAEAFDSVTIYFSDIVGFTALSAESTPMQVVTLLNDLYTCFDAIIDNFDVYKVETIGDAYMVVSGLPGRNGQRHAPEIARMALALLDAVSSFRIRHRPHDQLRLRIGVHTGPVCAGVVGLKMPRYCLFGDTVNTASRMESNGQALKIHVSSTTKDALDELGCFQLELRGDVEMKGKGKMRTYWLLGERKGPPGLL
The experiment in a line: NPR-B induced production of cyclic GMP in GTM-3 cells. Type of assay: cell-based. To be noted: Activity (group): NPR-B activation, EC50 and Emax (CNP = 100%). How it is done: The efficacy and potency of compounds to activate NPR-B were evaluated in a functional assay using endogenously NPR-B expressing GTM-3 cells (Pang et al. 1994, Curr Eye Res 13:51-63). In this assay the dose dependent production of cyclic GMP (cGMP) is determined and Emax (maximum activation) and EC50 values are calculated.
The cell culture medium is aspirated and each well is washed with 200 μl DMEM/Ham's F12=Medium (Gibco). Then, 200 μl Medium supplemented with 1 mM IBMX (3-Isobutyl-1-methyl-xanthin, Sigma) is added to each well and incubated for 15 min. at room temperature.
Final compound concentrations are in the range from 45 μM to 20 nM.
Take `CCCCCC(=O)N[C@H]1CSSC[C@@H](C(N)=O)NC(=O)[C@H](CO)NC(=O)[C@H]([C@@H](C)CC)NC(=O)[C@H](CCCNC(=N)N)NC(=O)[C@H](CC(=O)O)NC(=O)[C@H]([C@@H](C)CC)NC(=O)[C@H](CCCCN)NC(=O)[C@H](CC(C)C)NC(=O)CNC(=O)[C@H](Cc2ccccc2)NC(=O)[C@H]2CCCN2C1=O` [compound 92] (Hexanoyl-C[dP]FGLKIDRISC-NH2; disulfide 1-12): the EC50 (commonly the concentration giving half of the maximal effect) is below 1 µM.

The same assay, now with this note: Activity (group): NPR-B activation, EC50 and Emax (CNP = 100%), GTM-3 cells; group needs both EC50 and Emax criteria, checked A then B then C.
As for `CCCCCC(=O)N[C@H]1CSSC[C@@H](C(N)=O)NC(=O)[C@H](CO)NC(=O)[C@H]([C@@H](C)CC)NC(=O)[C@H](CCCNC(=N)N)NC(=O)[C@H](CC(=O)O)NC(=O)[C@H](CC(C)C)NC(=O)[C@@H]2CCCN2C(=O)[C@H](CC(C)C)NC(=O)CNC(=O)[C@H](Cc2ccccc2)NC(=O)[C@H]2CCCN2C1=O` [compound 91] (Hexanoyl-C[dP]FGLPLDRISC-NH2; disulfide 1-12), the EC50 was below 1 µM.

In turn, `CCCCCC(=O)N[C@H]1CSSC[C@@H](C(N)=O)NC(=O)[C@H](CO)NC(=O)[C@H]([C@@H](C)CC)NC(=O)[C@H](CCCNC(=N)N)NC(=O)[C@H](CC(=O)O)NC(=O)[C@H](CC(C)C)NC(=O)[C@@H]2CCCN2C(=O)[C@H](CC(C)C)NC(=O)CNC(=O)[C@H](Cc2ccccc2)NC(=O)[C@@H](C)NC1=O` [compound 93] had a half-maximal effective concentration (EC50) below 1 µM.

Still in this assay, the particulars now being: GTM-3 cells; group needs both EC50 and Emax criteria, checked A then B then C; read-out: Activity (group): NPR-B activation, EC50 and Emax (CNP = 100%).
In the case of `CC[C@H](C)[C@@H]1NC(=O)[C@H](CCCNC(=N)N)NC(=O)[C@H](CC(=O)O)NC(=O)[C@H](CC(C)C)NC(=O)[C@H](CCCCN)NC(=O)[C@H](CC(C)C)NC(=O)CNC(=O)[C@H](Cc2ccccc2)NC(=O)[C@H](Cc2c[nH]cn2)NC(=O)[C@@H](NC(=O)[C@@H](N)CCSC)CSSC[C@@H](C(=O)N[C@@H](CC(C)C)C(=O)N[C@@H](CCCNC(=N)N)C(N)=O)NC(=O)[C@H](CO)NC1=O` [compound 23] (H-MCHFGLKLDRISCLR-NH2; disulfide 2-13), the EC50 was below 5 µM.

Consider `CC[C@H](C)[C@@H]1NC(=O)[C@H](CCCNC(=N)N)NC(=O)[C@H](CC(=O)O)NC(=O)[C@H](CC(C)C)NC(=O)[C@H](CCCCN)NC(=O)[C@H](CC(C)C)NC(=O)CNC(=O)[C@H](Cc2ccccc2)NC(=O)[C@H](Cc2c[nH]cn2)NC(=O)[C@@H](NC(=O)[C@@H](N)CCSC)CSSC[C@@H](C(=O)N[C@@H](CO)C(=O)N[C@@H](CCCNC(=N)N)C(N)=O)NC(=O)[C@H](CO)NC1=O` [compound 24] (H-MCHFGLKLDRISCSR-NH2; disulfide 2-13), for which the concentration giving a half-maximal response (EC50) is below 5 µM.

On to `CC[C@H](C)[C@@H]1NC(=O)[C@H](CCCNC(=N)N)NC(=O)[C@H](CC(=O)O)NC(=O)[C@H](CC(C)C)NC(=O)[C@H](CCCCN)NC(=O)[C@H](CC(C)C)NC(=O)CNC(=O)[C@H](Cc2ccccc2)NC(=O)[C@H](Cc2c[nH]cn2)NC(=O)[C@H](NC(=O)[C@@H](N)CCSC)CSSC[C@H](C(N)=O)NC(=O)[C@H](CO)NC1=O` [compound 13], for which the EC50 is below 15 µM.

For the molecule `CCCCCC(=O)N[C@H]1CSSC[C@@H](C(N)=O)NC(=O)[C@H](CO)NC(=O)C2(CCSCC2)NC(=O)[C@H](CCCNC(=N)N)NC(=O)[C@H](CC(=O)O)NC(=O)[C@H](CC(C)C)NC(=O)[C@H](CCCCN)NC(=O)[C@H](CC(C)C)NC(=O)CNC(=O)[C@H](Cc2ccccc2)NC(=O)[C@@H](C)NC1=O` [compound 117], the 50% effective concentration (EC50) is below 15 µM.

With `CC[C@H](C)[C@@H]1NC(=O)[C@H](CCCNC(=N)N)NC(=O)[C@H](CC(=O)O)NC(=O)[C@H](CC(C)C)NC(=O)[C@H](CCCCN)NC(=O)[C@H](CC(C)C)NC(=O)CNC(=O)[C@H](Cc2ccccc2)NC(=O)[C@H](Cc2c[nH]cn2)NC(=O)[C@@H](NC(=O)[C@@H](N)CCSC)CSSC[C@@H](C(=O)N[C@@H](Cc2c[nH]cn2)C(=O)N[C@@H](CCCNC(=N)N)C(N)=O)NC(=O)[C@H](CO)NC1=O` [compound 25] (H-MCHFGLKLDRISCHR-NH2; disulfide 2-13), the EC50 was below 15 µM.

As for `CC[C@H](C)[C@@H]1NC(=O)[C@H](CCCNC(=N)N)NC(=O)[C@H](CC(=O)O)NC(=O)[C@H](CC(C)C)NC(=O)[C@H](CCCCN)NC(=O)[C@H](CC(C)C)NC(=O)CNC(=O)[C@H](Cc2ccccc2)NC(=O)[C@H](Cc2c[nH]cn2)NC(=O)[C@@H](NC(=O)[C@@H](N)CCSC)CSSC[C@@H](C(=O)N[C@@H](Cc2ccc(O)cc2)C(=O)N[C@@H](CCCNC(=N)N)C(N)=O)NC(=O)[C@H](CO)NC1=O` [compound 5] (H-MCHFGLKLDRISCYR-NH2; disulfide 2-13), the EC50 is below 5 µM.

As for `CC[C@H](C)[C@@H]1NC(=O)[C@H](CCCNC(=N)N)NC(=O)[C@H](CC(=O)O)NC(=O)[C@H](C(C)C)NC(=O)[C@H](CCCCN)NC(=O)[C@H](CC(C)C)NC(=O)CNC(=O)[C@H](Cc2ccccc2)NC(=O)[C@@H](C)NC(=O)[C@@H](NC(=O)[C@@H](N)CCSC)CSSC[C@@H](C(N)=O)NC(=O)[C@H](CO)NC1=O` [compound 54] (H-MC[dA]FGLKVDRISC-NH2; disulfide 2-13), the EC50 was below 5 µM.

As to `CC[C@H](C)[C@@H]1NC(=O)[C@H](CCCNC(=N)N)NC(=O)[C@H](CC(=O)O)NC(=O)[C@H](CC(C)C)NC(=O)[C@H](CCCCN)NC(=O)[C@H](CC(C)C)NC(=O)CNC(=O)[C@H](Cc2ccccc2)NC(=O)[C@H](Cc2c[nH]cn2)NC(=O)[C@@H](NC(=O)[C@@H](N)CCSC)CSSC[C@@H](C(=O)N[C@@H](Cc2ccc(O)cc2)C(=O)N[C@@H](Cc2c[nH]cn2)C(N)=O)NC(=O)[C@H](CO)NC1=O` [compound 28] (H-MCHFGLKLDRISCYH-NH2; disulfide 2-13), the concentration giving a half-maximal response (EC50) is below 5 µM.

In the case of `CC[C@H](C)[C@@H]1NC(=O)[C@H](CCCNC(=N)N)NC(=O)[C@H](CC(=O)O)NC(=O)[C@H](CC(C)C)NC(=O)[C@H](CCCCN)NC(=O)[C@H](CC(C)C)NC(=O)CNC(=O)[C@H](Cc2ccccc2)NC(=O)[C@@H](CC(N)=O)NC(=O)[C@@H](NC(=O)[C@@H](N)CCSC)CSSC[C@@H](C(N)=O)NC(=O)[C@H](CO)NC1=O` [compound 40], the EC50 is below 5 µM.

As to `CC[C@H](C)[C@@H]1NC(=O)[C@H](CCCNC(=N)N)NC(=O)[C@H](CC(=O)O)NC(=O)[C@H](CC(C)C)NC(=O)[C@H](CCCCN)NC(=O)[C@H](CC(C)C)NC(=O)CNC(=O)[C@H](Cc2ccccc2)NC(=O)[C@H](C)NC(=O)[C@@H](NC(=O)[C@@H](N)CCSC)CSSC[C@@H](C(N)=O)NC(=O)[C@H](CO)NC1=O` [compound 8], the EC50 is below 5 µM.

As to `CC[C@H](C)[C@@H]1NC(=O)[C@H](CCCNC(=N)N)NC(=O)[C@H](CC(=O)O)NC(=O)[C@H](CC(C)C)NC(=O)[C@H](CCCCN)NC(=O)[C@H](CC(C)C)NC(=O)CNC(=O)[C@H](Cc2ccccc2)NC(=O)CNC(=O)[C@@H](NC(=O)[C@@H](N)CCSC)CSSC[C@@H](C(N)=O)NC(=O)[C@H](CO)NC1=O` [compound 17], the EC50 is below 5 µM.

On to `CC[C@H](C)[C@@H]1NC(=O)[C@H](CCCNC(=N)N)NC(=O)[C@H](CC(=O)O)NC(=O)[C@H](CC(C)C)NC(=O)[C@H](CCCCN)NC(=O)[C@H](CC(C)C)NC(=O)CNC(=O)[C@H](Cc2ccccc2)NC(=O)[C@H](Cc2c[nH]cn2)NC(=O)[C@@H](NC(=O)[C@@H](N)CCSC)CSSC[C@@H](C(=O)N[C@@H](Cc2ccc(O)cc2)C(=O)N[C@@H](CO)C(N)=O)NC(=O)[C@H](CO)NC1=O` [compound 26] (H-MCHFGLKLDRISCYS-NH2; disulfide 2-13), for which the EC50 is below 15 µM.

Regarding `CC[C@H](C)[C@@H]1NC(=O)[C@H](CCCNC(=N)N)NC(=O)[C@H](CC(=O)O)NC(=O)[C@H](CC(C)C)NC(=O)[C@H](CCCCN)NC(=O)[C@H](CC(C)C)NC(=O)CNC(=O)[C@H](Cc2ccccc2)NC(=O)CCCNC(=O)[C@@H](NC(=O)[C@@H](N)CCSC)CSSC[C@@H](C(N)=O)NC(=O)[C@H](CO)NC1=O` [compound 32], the EC50 is below 15 µM.

Regarding `CC[C@H](C)[C@@H]1NC(=O)[C@H](CCCNC(=N)N)NC(=O)[C@H](CC(=O)O)NC(=O)[C@H](CC(C)C)NC(=O)[C@H](CCCCN)NC(=O)[C@H](CC(C)C)NC(=O)CNC(=O)[C@H](Cc2ccccc2)NC(=O)[C@H](Cc2c[nH]cn2)NC(=O)[C@H](NC(=O)[C@@H](N)CCSC)CSSC[C@@H](C(N)=O)NC(=O)[C@H](CO)NC1=O` [compound 11], the EC50 is below 15 µM.

Values taken from patent US9458198B1, “Cyclic peptide-based NPR-B agonists” (priority 2009, dated 2016).
